Columns and labels:
[1] = solubility in sterile distilled water; assay type: physicochemical; settings: thermodynamic from solid, read-out: maximum solubility
From the text: Sodium cromoglycate may be delivered from an implanted pump without the use of a catheter. For example, a DUROS® osmotic pump could be used. […] The formulation of sodium cromoglycate may then be loaded into a DUROS® pump under aseptic conditions. The pump is implanted in a subject, for instance subcutaneously in the upper arm, under local anesthetic and the drug would be released therefrom into the body of the subject. [formula]

[2] = test system: exercise-induced bronchoconstriction; settings: inhaled administration, plasma concentrations of 4-6 ng/ml; cited from earlier work
[3] = cited from earlier work

solubility [1]: ~120 mg/mL
SMILES: O=C(O)c1cc(=O)c2c(OCC(O)COc3cccc4oc(C(=O)O)cc(=O)c34)cccc2o1 [sodium cromoglycate, Sodium cromoglycate]
inhibition of exercise-induced bronchoconstriction [2]: 66% | bioavailability, inhaled ([3]; inhaled): 7.5% | oral bioavailability ([3]; oral): less than 1%
